The record followed here is patent publication US20240197737A1, “APPLICATION OF COMPOUND IN PREPARATION OF INHIBITORY DRUG TARGETING ERBB2 MUTANT” (SHANGHAI PHARMACEUTICALS HOLDING CO., LTD., priority 2021, published 2024).

Experiment [1] has as its target T1, ErbB2 (R896C) (Homo sapiens, UniProt P04626, R896C).
T1 construct: purchased Reaction Biology Corporation
Description: ErbB2 mutant inhibition assay (33P-ATP radiometric kinase assay, Reaction Biology). The settings on record: ATP 10 μM, 20 min preincubation, 2 h reaction; read-out: Compound IC50 ErbB2 (R896C). In kind it is biochemical. The procedure: (§1) The reagents and materials used in the assay, as well as the testing procedure, were provided and carried out by Reaction Biology Corporation. The specific steps were as follows: • 1. […] Conditions for the enzyme reaction assay: The test compounds were incubated for 20 minutes, ATP concentration was set at 10 μM, and the total duration of the enzyme reaction was 2 hours. • 3. Experimental steps for the enzyme reaction
(§2) The enzyme reaction buffer was 20 mM HEPES at a pH of 7.5, 10 mM MgCl2, 2 mM MnCl2, 1 mM EGTA, 0.01% Brij35, 0.02 mg/mL BSA, 0.1 mM Na3VO4, 2 mM DTT, and 1% DMSO.
(§3) Kinase activity %=(Remaining kinase activity of test compound samples/Kinase activity of solvent control samples (DMSO))*100%
(§4) The IC50 of the compound was calculated by fitting the kinase activity % at different compound concentrations.

Experiment [2] addresses T2, ErbB2 (D769Y) (Homo sapiens, UniProt P04626, D769Y).
T2 construct: purchased Reaction Biology Corporation
The experiment is described as above. Type of experiment: biochemical. To be noted: ATP 10 μM, 20 min preincubation, 2 h reaction; read-out: Compound IC50 ErbB2 (D769Y). The procedure: as §1, §2, §3, §4

The target in experiment [3] is T3, ErbB2 (V777L) (Homo sapiens, UniProt P04626, V777L).
T3 construct: purchased Reaction Biology Corporation
The experiment is described as above. Type of experiment: biochemical. The settings on record: ATP 10 μM, 20 min preincubation, 2 h reaction; read-out: Compound IC50 ErbB2 (V777L). The procedure: as §1, §2, §3, §4

The target in experiment [4] is T4, ErbB2 (D769H) (Homo sapiens, UniProt P04626, D769H).
T4 construct: purchased Reaction Biology Corporation
The description is as above. In kind it is biochemical. The settings on record: ATP 10 μM, 20 min preincubation, 2 h reaction; read-out: Compound IC50 ErbB2 (D769H). The procedure: as §1, §2, §3, §4

Experiment [5] relates to Ba/F3 ErbB2 A775_G776insYVMA mouse xenograft. Description: Efficacy testing in NPSG mouse xenograft model. To be noted: 20 mg/kg; for Efficacy (in words): continuous administration for 13 days; for TGI (%): administration for 13 days. Type of experiment: in vivo. An excerpt:
NPSG male mice (Shanghai Jihui Laboratory Animal Care Co., Ltd., Certificate: No. 20170012006783) were subcutaneously inoculated on the right shoulder with Ba/F3 ErbB2 A775_G776insYVMA cells (cultured in vitro, 9×10^7 cells obtained). When the average tumor volume reached 130 mm^3, the mice were randomly divided into six groups based on tumor volume and body weight, with 10 mice in each group, and administration was started immediately. After the initiation of administration, the mice's body weight and tumor volume were measured twice a week, with the administration continued until Day 13 of the experiment. On Day 14 of the experiment, post-administration sample collection was conducted for each group.
Note: Data are presented as mean±standard error; control group is the group without any compound administered.

In experiment [6] the test system is Ba/F3 ErbB2 A775_G776insYVMA. Description: ErbB2 mutant cell inhibition test (CTG, 72 hours). Type of experiment: cell-based. To be noted: Mus musculus, BaF3; Ba/F3 ErbB2 A775_G776insYVMA, 72 hours, CTG. The procedure:
Cells were cultured, harvested during their logarithmic growth phase, and counted using a platelet counter. Cell viability was verified to be above 90% by trypan blue exclusion assay. After in vitro culture, 2×10^6 cells were obtained. […] A 10× drug solution was prepared, with a maximum concentration of 10 μM for the assay, and serially diluted 3-fold to nine concentrations. 10 μL of the drug solution was added to each well of the 96-well plate inoculated with the cells, and three duplicate wells were set for each drug concentration.

Experiment [7] has as its system NCI-H1781 ErbB2 exon20ins (G766 > VC). Description: ErbB2 mutant cell inhibition test (CTG, 72 hours). Type of experiment: cell-based, Human. To be noted: Homo sapiens; NCI-H1781 ErbB2 exon20ins (G766 > VC), 72 hours, CTG. The protocol:
Cells were cultured, harvested during their logarithmic growth phase, and counted using a platelet counter. Cell viability was verified to be above 90% by trypan blue exclusion assay. After in vitro culture, 2×10^6 cells were obtained. The cell suspension was aliquoted into a 96-well plate at 1×10^3 cells per well (90 μL/well), and incubated overnight under conditions of 37° C., 5% CO2, and 95% humidity. A 10× drug solution was prepared, with a maximum concentration of 10 μM for the assay, and serially diluted 3-fold to nine concentrations. 10 μL of the drug solution was added to each well of the 96-well plate inoculated with the cells, and three duplicate wells were set for each drug concentration. The 96-well plate, now containing the drug-treated cells, was cultured under conditions of 37° C., 5% CO2, and 95% humidity for an additional 72 hours before CTG analysis was performed.

T4 sequence (P04626 23-1255 D769H): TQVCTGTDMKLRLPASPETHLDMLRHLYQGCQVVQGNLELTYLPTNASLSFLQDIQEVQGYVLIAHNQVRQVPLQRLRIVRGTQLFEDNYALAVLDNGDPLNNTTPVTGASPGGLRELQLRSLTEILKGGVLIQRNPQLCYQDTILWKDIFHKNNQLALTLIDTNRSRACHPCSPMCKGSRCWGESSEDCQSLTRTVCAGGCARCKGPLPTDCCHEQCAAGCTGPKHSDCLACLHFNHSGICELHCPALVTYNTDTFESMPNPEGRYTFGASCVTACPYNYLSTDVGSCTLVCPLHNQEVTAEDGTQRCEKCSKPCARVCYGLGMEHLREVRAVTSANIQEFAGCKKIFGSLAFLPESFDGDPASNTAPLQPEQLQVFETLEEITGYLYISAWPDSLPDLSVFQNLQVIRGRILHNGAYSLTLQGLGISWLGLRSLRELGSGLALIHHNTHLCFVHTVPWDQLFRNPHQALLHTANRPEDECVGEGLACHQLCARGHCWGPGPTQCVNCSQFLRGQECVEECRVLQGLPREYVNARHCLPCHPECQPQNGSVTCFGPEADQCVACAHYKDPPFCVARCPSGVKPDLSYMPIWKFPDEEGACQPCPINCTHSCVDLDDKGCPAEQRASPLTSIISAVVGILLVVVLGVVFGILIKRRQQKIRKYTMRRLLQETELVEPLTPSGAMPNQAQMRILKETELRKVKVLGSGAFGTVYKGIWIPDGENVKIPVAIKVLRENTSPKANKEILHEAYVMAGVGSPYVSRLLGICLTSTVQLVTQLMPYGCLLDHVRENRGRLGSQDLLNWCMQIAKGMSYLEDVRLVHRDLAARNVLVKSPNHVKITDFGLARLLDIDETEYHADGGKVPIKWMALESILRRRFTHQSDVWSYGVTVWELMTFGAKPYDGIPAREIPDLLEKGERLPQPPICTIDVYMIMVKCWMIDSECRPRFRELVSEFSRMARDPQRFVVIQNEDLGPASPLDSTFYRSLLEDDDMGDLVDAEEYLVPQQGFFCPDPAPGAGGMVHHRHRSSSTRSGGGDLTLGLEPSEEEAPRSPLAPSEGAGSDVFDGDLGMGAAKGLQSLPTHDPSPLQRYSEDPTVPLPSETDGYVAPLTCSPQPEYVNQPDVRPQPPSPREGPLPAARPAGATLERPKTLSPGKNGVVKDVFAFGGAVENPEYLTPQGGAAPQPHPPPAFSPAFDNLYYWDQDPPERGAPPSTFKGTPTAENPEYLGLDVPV
T1 sequence (P04626 23-1255 R896C): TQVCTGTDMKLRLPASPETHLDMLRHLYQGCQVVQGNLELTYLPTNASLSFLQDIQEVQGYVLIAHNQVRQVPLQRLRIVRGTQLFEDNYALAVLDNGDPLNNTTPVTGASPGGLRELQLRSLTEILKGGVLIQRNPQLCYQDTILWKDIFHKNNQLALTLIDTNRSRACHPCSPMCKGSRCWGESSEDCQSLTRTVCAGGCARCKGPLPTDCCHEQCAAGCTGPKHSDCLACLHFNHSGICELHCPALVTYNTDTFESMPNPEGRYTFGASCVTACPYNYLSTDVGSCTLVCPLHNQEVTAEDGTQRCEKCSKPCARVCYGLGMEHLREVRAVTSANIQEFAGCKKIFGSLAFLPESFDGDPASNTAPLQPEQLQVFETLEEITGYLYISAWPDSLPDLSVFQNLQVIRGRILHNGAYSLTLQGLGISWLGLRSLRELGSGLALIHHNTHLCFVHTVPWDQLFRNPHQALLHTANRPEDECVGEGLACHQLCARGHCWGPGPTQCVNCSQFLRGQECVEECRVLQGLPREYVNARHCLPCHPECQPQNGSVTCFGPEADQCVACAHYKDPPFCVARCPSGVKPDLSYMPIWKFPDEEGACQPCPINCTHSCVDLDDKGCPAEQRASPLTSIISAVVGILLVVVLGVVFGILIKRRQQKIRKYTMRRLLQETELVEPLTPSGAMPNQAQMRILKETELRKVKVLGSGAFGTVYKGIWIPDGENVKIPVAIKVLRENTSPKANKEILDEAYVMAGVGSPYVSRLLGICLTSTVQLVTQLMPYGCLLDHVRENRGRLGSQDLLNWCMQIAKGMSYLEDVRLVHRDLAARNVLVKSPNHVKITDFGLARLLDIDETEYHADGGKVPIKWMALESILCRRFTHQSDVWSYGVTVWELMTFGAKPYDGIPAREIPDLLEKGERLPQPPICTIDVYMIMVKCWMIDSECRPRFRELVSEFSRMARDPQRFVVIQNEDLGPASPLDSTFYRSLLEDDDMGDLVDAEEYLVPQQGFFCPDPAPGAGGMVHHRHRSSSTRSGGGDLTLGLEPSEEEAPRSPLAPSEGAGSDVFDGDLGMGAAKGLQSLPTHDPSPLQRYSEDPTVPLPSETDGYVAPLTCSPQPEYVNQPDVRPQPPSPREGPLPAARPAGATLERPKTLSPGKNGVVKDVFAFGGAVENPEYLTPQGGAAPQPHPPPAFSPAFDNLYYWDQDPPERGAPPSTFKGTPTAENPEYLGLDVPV
T2 sequence (P04626 23-1255 D769Y): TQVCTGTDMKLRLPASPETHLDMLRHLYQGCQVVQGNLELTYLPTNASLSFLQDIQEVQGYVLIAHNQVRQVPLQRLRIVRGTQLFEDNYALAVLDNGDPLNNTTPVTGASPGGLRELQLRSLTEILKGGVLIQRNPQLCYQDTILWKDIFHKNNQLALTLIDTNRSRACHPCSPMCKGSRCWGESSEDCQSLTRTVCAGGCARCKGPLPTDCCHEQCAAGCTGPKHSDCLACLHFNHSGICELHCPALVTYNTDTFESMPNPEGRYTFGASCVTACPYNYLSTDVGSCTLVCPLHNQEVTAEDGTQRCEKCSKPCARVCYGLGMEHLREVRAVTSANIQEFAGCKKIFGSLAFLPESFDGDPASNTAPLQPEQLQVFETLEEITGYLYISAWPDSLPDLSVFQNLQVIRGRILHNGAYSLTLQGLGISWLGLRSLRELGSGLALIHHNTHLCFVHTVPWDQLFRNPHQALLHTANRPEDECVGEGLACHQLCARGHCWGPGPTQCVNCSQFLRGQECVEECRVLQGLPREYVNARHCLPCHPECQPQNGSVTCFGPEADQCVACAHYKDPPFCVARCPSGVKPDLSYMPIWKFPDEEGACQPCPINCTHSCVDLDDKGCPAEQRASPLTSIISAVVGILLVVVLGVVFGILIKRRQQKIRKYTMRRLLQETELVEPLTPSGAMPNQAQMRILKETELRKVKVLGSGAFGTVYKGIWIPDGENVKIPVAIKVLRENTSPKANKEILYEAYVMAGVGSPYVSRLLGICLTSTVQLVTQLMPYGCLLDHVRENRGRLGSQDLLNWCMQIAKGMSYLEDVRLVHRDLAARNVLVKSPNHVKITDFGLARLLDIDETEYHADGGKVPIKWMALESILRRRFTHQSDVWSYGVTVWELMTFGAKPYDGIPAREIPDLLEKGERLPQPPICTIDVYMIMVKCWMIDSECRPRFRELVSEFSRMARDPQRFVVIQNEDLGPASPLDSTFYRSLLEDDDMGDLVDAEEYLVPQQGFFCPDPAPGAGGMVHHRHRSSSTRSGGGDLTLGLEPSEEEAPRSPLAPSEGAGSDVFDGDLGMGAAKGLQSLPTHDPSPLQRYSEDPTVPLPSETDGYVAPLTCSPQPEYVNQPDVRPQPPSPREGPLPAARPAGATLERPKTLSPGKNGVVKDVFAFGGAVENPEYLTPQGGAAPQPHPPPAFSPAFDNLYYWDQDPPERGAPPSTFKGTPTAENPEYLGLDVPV
T3 sequence (P04626 23-1255 V777L): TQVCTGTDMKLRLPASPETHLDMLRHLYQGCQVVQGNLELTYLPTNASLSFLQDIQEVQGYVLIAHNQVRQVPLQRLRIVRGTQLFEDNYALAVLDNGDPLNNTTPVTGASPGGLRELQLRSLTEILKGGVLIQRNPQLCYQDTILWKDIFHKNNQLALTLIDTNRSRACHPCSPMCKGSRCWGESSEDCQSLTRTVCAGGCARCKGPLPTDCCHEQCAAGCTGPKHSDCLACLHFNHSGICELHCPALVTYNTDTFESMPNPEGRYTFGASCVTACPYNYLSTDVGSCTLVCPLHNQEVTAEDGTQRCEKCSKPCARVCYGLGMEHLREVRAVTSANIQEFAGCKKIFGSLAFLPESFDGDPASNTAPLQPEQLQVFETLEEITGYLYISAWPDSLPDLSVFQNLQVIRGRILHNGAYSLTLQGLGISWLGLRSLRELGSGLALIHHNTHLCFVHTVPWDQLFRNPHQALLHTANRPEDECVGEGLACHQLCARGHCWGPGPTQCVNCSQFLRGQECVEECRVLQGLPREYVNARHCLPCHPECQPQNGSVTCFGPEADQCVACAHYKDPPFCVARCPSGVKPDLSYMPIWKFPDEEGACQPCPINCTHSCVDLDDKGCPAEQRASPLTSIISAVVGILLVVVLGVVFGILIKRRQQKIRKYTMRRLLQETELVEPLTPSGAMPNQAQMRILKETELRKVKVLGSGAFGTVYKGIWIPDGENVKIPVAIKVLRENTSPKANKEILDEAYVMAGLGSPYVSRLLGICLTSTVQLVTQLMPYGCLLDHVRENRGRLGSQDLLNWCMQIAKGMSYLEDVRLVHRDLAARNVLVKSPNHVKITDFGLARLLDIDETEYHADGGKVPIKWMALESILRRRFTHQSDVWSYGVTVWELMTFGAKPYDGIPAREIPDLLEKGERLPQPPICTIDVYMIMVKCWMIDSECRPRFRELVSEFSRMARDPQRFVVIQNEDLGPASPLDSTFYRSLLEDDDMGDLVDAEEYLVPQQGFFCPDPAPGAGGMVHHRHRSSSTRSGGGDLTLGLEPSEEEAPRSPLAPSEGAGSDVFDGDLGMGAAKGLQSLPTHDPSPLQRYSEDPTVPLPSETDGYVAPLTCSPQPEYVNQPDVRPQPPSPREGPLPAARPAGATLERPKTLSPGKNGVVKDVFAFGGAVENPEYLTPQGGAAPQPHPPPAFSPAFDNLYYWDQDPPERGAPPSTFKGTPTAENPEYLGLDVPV

Consider `Cc1cc(Nc2ncnc3ccc(NC(=O)/C=C/[C@H]4CCCN4C)cc23)ccc1Oc1ccc2nccn2n1`, for which the IC50 (commonly the point on the concentration scale where inhibition reaches its midpoint) is 3.7 nM in experiment [1], 38.9 nM in experiment [2], 14.9 nM in experiment [3] and 9.11 nM in experiment [4].

On to `Cc1cc(Nc2ncnc3ccc(NC(=O)/C=C/[C@H]4CCCN4C)cc23)ccc1Oc1ccn2ccnc2c1`, for which the concentration for half-maximal inhibition (IC50) in experiment [1] is 0.379 nM; in experiment [2], 0.244 nM; in experiment [3], less than 0.152 nM; in experiment [4], less than 0.152 nM.

In the case of `Cc1cc(Nc2ncnc3ccc(NC(=O)/C=C/[C@H]4CCCN4C)cc23)ccc1Oc1ccn2cnnc2c1`, the IC50 in experiment [1] is 0.191 nM; in experiment [2] it was 1.98 nM; in experiment [3], 0.625 nM; in experiment [4] it was 0.253 nM.

For the compound `Cc1cc(Nc2ncnc3ccc(NC(=O)/C=C/[C@H]4CCCN4C)cc23)ccc1Oc1cnc2ccnn2c1`, the IC50 in experiment [1] is 0.336 nM; in experiment [2], 0.6 nM; in experiment [3], 0.279 nM; in experiment [4], less than 0.152 nM.

As for `Cc1cc(Nc2ncnc3ccc(NC(=O)/C=C/[C@H]4CCCN4)cc23)ccc1Oc1ccn2ncnc2c1`, the IC50 turned out to be 0.997 nM in experiment [1], 0.246 nM in experiment [2], 0.186 nM in experiment [3] and 0.325 nM in experiment [4].

As to `Cc1cc(Nc2ncnc3ccc(NC(=O)/C=C/[C@H]4CCCN4C)cc23)ccc1Oc1cc2nccn2cn1`, the IC50 in experiment [1] came to 0.741 nM; in experiment [2] it was 0.216 nM; in experiment [3], 0.224 nM; in experiment [4], 0.283 nM.

Regarding `Cc1cc(Nc2ncnc3ccc(NC(=O)/C=C/[C@H]4CCCN4)cc23)ccc1Oc1cc2nncn2cn1`, the IC50 in experiment [1] came to 1.13 nM; in experiment [2], 0.247 nM; in experiment [3], 0.357 nM; in experiment [4], 0.422 nM.

Take `Cc1cc(Nc2ncnc3ccc(NC(=O)/C=C/[C@@H]4CCCN4C)cc23)ccc1Oc1cc2nncn2cn1`: the IC50 came out at 0.788 nM in experiment [1], 1.45 nM in experiment [2], 0.163 nM in experiment [3] and 0.549 nM in experiment [4].

With `CN1CCC[C@@H]1/C=C/C(=O)Nc1ccc2ncnc(Nc3ccc(Oc4cc5nncn5cn4)c(Cl)c3)c2c1`, the IC50 in experiment [1] was 0.187 nM; in experiment [2], less than 0.152 nM; in experiment [3], less than 0.152 nM; in experiment [4], less than 0.152 nM.

With `COCCOc1cc2ncnc(Nc3ccc(Oc4cc5nncn5cn4)c(C)c3)c2cc1NC(=O)/C=C/[C@H]1CCCN1C`, the IC50 is 0.599 nM in experiment [1], less than 0.152 nM in experiment [2], less than 0.152 nM in experiment [3] and 0.241 nM in experiment [4].

With `Cc1cc(Nc2ncnc3ccc(NC(=O)/C=C/C4COCCN4)cc23)ccc1Oc1cc2nncn2cn1` (stereo not shown), the IC50 in experiment [1] is 0.973 nM; in experiment [2], 0.892 nM; in experiment [3], 0.438 nM; in experiment [4], 0.72 nM.

As for `Cc1cc(Nc2ncnc3ccc(NC(=O)/C(F)=C/[C@H]4CCCN4C)cc23)ccc1Oc1cc2nncn2cn1`, the IC50 in experiment [1] came to 4.84 nM; in experiment [2], 0.811 nM; in experiment [3], 2.41 nM; in experiment [4] it was 1.69 nM.

As for `CCOc1cc2ncc(C#N)c(Nc3ccc(Oc4cc5nncn5cn4)c(C)c3)c2cc1NC(=O)/C=C/[C@H]1CCCN1C`, the IC50 in experiment [1] is 1.94 nM; in experiment [2], 2.06 nM; in experiment [3] it was 0.889 nM; in experiment [4], 1.34 nM.

With `CCOc1cc2ncnc(Nc3ccc(Oc4cc5nncn5cn4)c(C)c3)c2cc1NC(=O)/C=C/[C@H]1CCCN1C`, the concentration for half-maximal inhibition (IC50) in experiment [1] is 1.87 nM; in experiment [2], 0.413 nM; in experiment [3], 0.471 nM; in experiment [4], 0.563 nM.

Regarding `CCOc1cc2ncnc(Nc3ccc(Oc4ccn5ncnc5c4)c(C)c3)c2cc1NC(=O)/C=C/[C@H]1CCCN1C`, the IC50 in experiment [1], in experiment [2], in experiment [3] and in experiment [4] was less than 0.152 nM throughout.

As for `CCOc1cc2ncnc(Nc3ccc(Oc4ccn5ncnc5c4)c(C)c3)c2cc1NC(=O)/C(F)=C/[C@@H]1CCCN1C`, the IC50 in experiment [1] worked out at 0.978 nM; in experiment [2], 2.44 nM; in experiment [3], 0.235 nM; in experiment [4], 0.998 nM.

For the compound `CS(=O)(=O)CCNCc1ccc(-c2ccc3ncnc(Nc4ccc(OCc5cccc(F)c5)c(Cl)c4)c3c2)o1` [Lapatinib, reference compound], in experiment [5], the “Efficacy (in words)” value is recorded as “moderate efficacy”. This compound showed an IC50 in experiment [6] of 106 nM.

As to `CCOc1cc2ncc(C#N)c(Nc3ccc(OCc4ccccn4)c(Cl)c3)c2cc1NC(=O)/C=C/CN(C)C` [Neratinib, reference compound], the Tumor volume in experiment [5] (Day 0, mean ± standard error) is given as 130.9 ± 4.75 mm^3; in experiment [5] (Day 4, mean ± standard error), 115.3 ± 9.81 mm^3; in experiment [5] (Day 7, mean ± standard error), 182 ± 10.87 mm^3; in experiment [5] (Day 11, mean ± standard error), 325.6 ± 9.86 mm^3; in experiment [5] (Day 13, mean ± standard error), 532.8 ± 15.26 mm^3. Moreover, the “TGI (%)” value in experiment [5] amounted to 56%.

For `CCOc1cc2ncc(C#N)c(Nc3ccc(OCc4ccccn4)c(Cl)c3)c2cc1NC(=O)/C=C/[C@H]1CCCN1C` [Pyrotinib, reference compound], the Tumor volume in experiment [5] (Day 0, mean ± standard error) was determined as 130.4 ± 5.4 mm^3; in experiment [5] (Day 4, mean ± standard error) it was 154.6 ± 4.87 mm^3; in experiment [5] (Day 7, mean ± standard error), 328.2 ± 13.39 mm^3; in experiment [5] (Day 11, mean ± standard error), 405.4 ± 19.38 mm^3; in experiment [5] (Day 13, mean ± standard error), 534.8 ± 38.29 mm^3. The “TGI (%)” value in experiment [5] turned out to be 55%. The “Efficacy (in words)” value in experiment [5] is reported as “moderate efficacy”. In addition, the IC50 was 73.2 nM in experiment [7]; 5.24 nM in experiment [1]; 91.7 nM in experiment [2]; 10.5 nM in experiment [3]; 15.6 nM in experiment [4].

For the compound `Cc1cc(Nc2ncnc3ccc(NC4=NC(C)(C)CO4)cc23)ccc1Oc1ccn2ncnc2c1` [Tucatinib, reference compound], the IC50 in experiment [1] is 2.17 nM; in experiment [2], 8.89 nM; in experiment [3] it was 1.08 nM; in experiment [4], 2.58 nM.
